Results as given in US7803930B2, “Antisense modulation of apolipoprotein B-expression” (Isis Pharmaceuticals, Inc., priority 2002, dated 2010).

Key:
PTEN = experiment: ob/ob mice (Example 50): PTEN levels; assay type: in vivo, mouse; conditions: high fat high cholesterol diet, 50 mg/kg i.p. twice a week, six weeks
Procedure: (§1) Ob/ob mice receiving a high fat, high cholesterol diet (60% kcal fat supplemented with 0.15% cholesterol) were treated with one of several oligonucleotides to evaluate their effect on apolipoprotein B-related phenotypic endpoints in ob/ob mice. After overnight fasting, mice from each group were dosed intraperitoneally twice a week with 50 mg/kg of ISIS 147483 (SEQ ID NO: 79), or 147764 (SEQ ID NO: 109), or the controls ISIS 116847 (SEQ ID NO: 857), or 141923 (SEQ ID NO: 858), or saline for six weeks. At study termination and forty eight hours after the final injections, animals were sacrificed and evaluated for target mRNA levels in liver, cholesterol and triglyceride levels, liver enzyme levels, serum glucose levels, and PTEN levels.

apolipoprotein B mRNA [1] = experiment: ob/ob mice (Example 50): apolipoprotein B mRNA levels in liver; assay type: in vivo, mouse; conditions: liver, high fat high cholesterol diet, 50 mg/kg i.p. twice a week, six weeks
Procedure: as §1

apolipoprotein B mRNA [2] = experiment: High fat fed mice, time-dependent effects and after cessation of dosing (Example 51): apolipoprotein B mRNA in liver; assay type: in vivo, mouse; conditions: liver, 50 mg/kg i.p. twice weekly
Procedure: (§2) In a further embodiment of the invention, the inhibition of apolipoprotein B mRNA in mice was compared to liver oligonucleotide concentration, total cholesterol, LDL-cholesterol and HDL-cholesterol. Male C57Bl/6 mice receiving a high fat diet (60% fat) were evaluated over the course of 6 weeks for the effects of treatment with twice weekly intraperitoneal injections of 50 mg/kg ISIS 147764 (SEQ ID NO: 109) or 50 mg/kg of the control oligonucleotide ISIS 141923 (SEQ ID NO: 858). Control animals received saline treatment. Animals were sacrificed after 2 days, 1, 2, 4 and 6 weeks of treatment. Each treatment group at each time point consisted of 8 mice.
(§3) Target expression in liver was measured by real-time PCR as described by other examples herein and is expressed as percent inhibition relative to saline treated mice. Total, LDL- and HDL-cholesterol levels were measured by routine clinical analysis using an Olympus Clinical Analyzer (Olympus America Inc., Melville, N.Y.) and are presented in mg/dL. Results from saline-treated animals are shown for comparison. Intact oligonucleotide in liver tissue was measured by capillary gel electrophoresis and is presented as micrograms of oligonucleotide per gram of tissue.
(§4) The oligonucleotide treatments described in this example were duplicated to investigate the extent to which effects of ISIS 147764 persist following cessation of treatment. Mice were treated as described, and sacrificed 1, 2, 4, 6 and 8 weeks following the cessation of oligonucleotide treatment.

[3] = High fat fed mice (Example 51): total, LDL- and HDL-cholesterol levels; assay type: in vivo, mouse; conditions: 50 mg/kg i.p. twice weekly
Procedure: as §2, §3, §4

[4] = High fat fed mice (Example 51): intact oligonucleotide in liver tissue by capillary gel electrophoresis; assay type: in vivo, mouse; conditions: 50 mg/kg i.p. twice weekly
Procedure: as §2, §3, §4

[5] = ob/ob mice (Example 50): cholesterol, lipid, triglyceride, liver enzyme and glucose levels; assay type: in vivo, mouse; conditions: high fat high cholesterol diet, 50 mg/kg i.p. twice a week, six weeks
Procedure: as §1

apolipoprotein B protein [6] = experiment: Apolipoprotein B protein in primary Cynomolgous monkey hepatocytes, immunoblot; assay type: cell-based
Procedure: Additionally, protein was isolated from oligonucleotide-treated primary Cynomolgous monkey hepatocytes and subjected to immunoblot analysis to further assess apolipoprotein B protein expression. Immunoblotting was performed as described herein, using an antibody to human apolipoprotein B protein (US Biologicals, Swampscott, Mass.).

apolipoprotein B protein [7] = experiment: Apolipoprotein B protein secreted from primary Cynomolgous monkey hepatocytes, ELISA; assay type: cell-based; conditions: primary Cynomolgous hepatocytes; 150 and 300 nM
Procedure: Apolipoprotein B protein secreted from primary Cynomolgous hepatocytes treated with 150 and 300 nM of oligonucleotide was measured by ELISA using an apolipoprotein B protein specific kit (ALerCHEK Inc., Portland, Me.). Each result represents the average of 3 experiments.
Apolipoprotein B protein secreted primary Cynomolgous hepatocytes treated with 50 and 150 nM of ISIS 315089 and ISIS 281625 was measured by ELISA using an apolipoprotein B protein specific kit (ALerCHEK Inc., Portland, Me.). Each result represents the average of 3 experiments.
Apolipoprotein B protein secreted from primary Cynomolgous hepatocytes treated with 50 and 150 nM of ISIS 271009 and ISIS 301027 was measured by ELISA using an apolipoprotein B protein specific kit (ALerCHEK Inc., Portland, Me.). Each result represents the average of 3 experiments.

[8] = tested on: Cynomolgous monkey apolipoprotein B mRNA; experiment: Apolipoprotein B mRNA in primary Cynomolgous monkey hepatocytes, real-time PCR; assay type: cell-based; conditions: cynomolgous monkey primary hepatocytes; 10, 50, 150 or 300 nM
Method in brief: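 Primary cynomolgus hepatocytes treated with antisense oligonucleotides at 10, 50, 150 or 300 nM (some sets 10–150 nM) for 24 or 48 h, depending on the set. mRNA quantified by real-time PCR using human apoB and GAPDH primers/probes. Values are percent inhibition normalized to untreated cells, averaged over 2–6 experiments.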

[9] = high fat fed male C57Bl/6 mice, treatment period 1 week
[10] = high fat fed male C57Bl/6 mice, treatment period 2 weeks
[11] = high fat fed male C57Bl/6 mice, treatment period 4 weeks
[12] = high fat fed male C57Bl/6 mice, treatment period 6 weeks
[13] = high fat fed male C57Bl/6 mice, treatment period 2 days
[14] = high fat fed mice, 1 week after cessation of dosing
[15] = high fat fed mice, 2 weeks after cessation of dosing
[16] = high fat fed mice, 4 weeks after cessation of dosing
[17] = high fat fed mice, 6 weeks after cessation of dosing
[18] = high fat fed mice, 8 weeks after cessation of dosing

## 141923 (CCTTCCCTGAAGGTTCCTCC; listed as DNA, chemistry not given here) [compound 141923]
PTEN
  mRNA % control PTEN: 113.6 % control
Apolipoprotein B mRNA [1]
  mRNA % control ApoB: 100.0 % control
Apolipoprotein B mRNA [2]; [9]
  % Inhibition apolipoprotein B mRNA: 4%
Apolipoprotein B mRNA [2]; [10]
  % Inhibition apolipoprotein B mRNA: 7%
Apolipoprotein B mRNA [2]; [11]
  % Inhibition apolipoprotein B mRNA: 0%
Apolipoprotein B mRNA [2]; [12]
  % Inhibition apolipoprotein B mRNA: 0%
Apolipoprotein B mRNA [2]; [13]
  % Inhibition apolipoprotein B mRNA: 9%
Apolipoprotein B mRNA [2]; [14]
  % Inhibition apolipoprotein B mRNA: 15%
Apolipoprotein B mRNA [2]; [15]
  % Inhibition apolipoprotein B mRNA: 2%
Apolipoprotein B mRNA [2]; [16]
  % Inhibition apolipoprotein B mRNA: 7%
Apolipoprotein B mRNA [2]; [17]
  % Inhibition apolipoprotein B mRNA: 11%
Apolipoprotein B mRNA [2]; [18]
  % Inhibition apolipoprotein B mRNA: 7%
[3]; [9]
  HDL-cholesterol: 116 mg/dL
  LDL-cholesterol: 27 mg/dL
  Total cholesterol: 146 mg/dL
[3]; [10]
  HDL-cholesterol: 122 mg/dL
  LDL-cholesterol: 27 mg/dL
  Total cholesterol: 152 mg/dL
[3]; [11]
  HDL-cholesterol: 128 mg/dL
  LDL-cholesterol: 38 mg/dL
  Total cholesterol: 169 mg/dL
[3]; [12]
  HDL-cholesterol: 166 mg/dL
  LDL-cholesterol: 56 mg/dL
  Total cholesterol: 225 mg/dL
[3]; [13]
  HDL-cholesterol: 70 mg/dL
  LDL-cholesterol: 8 mg/dL
  Total cholesterol: 99 mg/dL
[3]; [14]
  HDL-cholesterol: 121 mg/dL
  LDL-cholesterol: 24 mg/dL
  Total cholesterol: 158 mg/dL
[3]; [15]
  HDL-cholesterol: 105 mg/dL
  LDL-cholesterol: 24 mg/dL
  Total cholesterol: 139 mg/dL
[3]; [16]
  HDL-cholesterol: 135 mg/dL
  LDL-cholesterol: 32 mg/dL
  Total cholesterol: 185 mg/dL
[3]; [17]
  HDL-cholesterol: 136 mg/dL
  LDL-cholesterol: 32 mg/dL
  Total cholesterol: 186 mg/dL
[3]; [18]
  HDL-cholesterol: 108 mg/dL
  LDL-cholesterol: 24 mg/dL
  Total cholesterol: 151 mg/dL
[4]; [9]
  Intact oligonucleotide: 61 µg/g
[4]; [10]
  Intact oligonucleotide: 152 µg/g
[4]; [11]
  Intact oligonucleotide: 261 µg/g
[4]; [12]
  Intact oligonucleotide: 631 µg/g
[4]; [13]
  Intact oligonucleotide: 58 µg/g
[4]; [14]
  Intact oligonucleotide: 297 µg/g
[4]; [15]
  Intact oligonucleotide: 250 µg/g
[4]; [16]
  Intact oligonucleotide: 207 µg/g
[4]; [17]
  Intact oligonucleotide: 212 µg/g
[4]; [18]
  Intact oligonucleotide: 128 µg/g
[5]
  Glucose: 328.5 mg/dL
  Lipoproteins CHOL: 646.3 mg/dL
  Lipoproteins TRIG: 196.5 mg/dL
  Liver Enzymes ALT: 701.7 IU/L
  Liver Enzymes AST: 329.3 IU/L

## GCCTCAGTCTGCTTTACACC (gapmer: ten 2'-deoxy gap, five-nucleotide wings, wing chemistry not given here) [ISIS 326358]
Apolipoprotein B protein [6]
  apolipoprotein B expression (immunoblot): substantial reduction
Apolipoprotein B protein [7]
  secretion of apolipoprotein B protein (ELISA): decrease
[8]
  inhibition of apolipoprotein B mRNA expression: in a dose- and time-dependent manner
